The values below come from patent US11384078B2, “5,6-fused-bicyclic compounds and compositions for the treatment of parasitic diseases” (NOVARTIS AG, priority 2017, dated 2022).

Holding throughout (type): cell-based
In assay [1] the test system is Trypanosoma brucei brucei (Lister 427) strain. Kind of assay: Assay for growth inhibition against Trypanosoma brucei brucei (Cell TiterGlo ATP luminescence). The conditions noted are these: T. brucei brucei (Lister 427), read-out: T. Brucei (HAT) EC50. How it is done: Assay for Growth Inhibition Against Trypanosoma brucei brucei
The proliferation is quantified by the addition of Cell TiterGlo® (Promega®) a luminescent cell viability assay that measures the number of viable cells in culture based on the quantification of cellular ATP amount, which is an indicator of metabolically active cells.
Trypanosoma brucei brucei (Lister 427) strain was grown in Hirumi 9 (HMI-9) media supplemented with 10% v/v fetal bovine serum (FBS) and 10% v/v serum plus. For measurement of cell proliferation inhibition, test compounds were three fold serially diluted in duplicates to 384-well white plates, resulting in 10 dilutions for each compound. A volume of 40 μL of T. b. brucei culture (10,000 parasites/mL) was added to each well, and the assay plates were incubated at 37° C. for 2 days in a CO2 incubator. Growth inhibition was monitored by measuring ATP levels, which, is used as a surrogate marker for growth. Relative luminescence units were measured using TECAN® M1000 after 30 min of adding 40 μl of Cell TiterGlo®. IC50 values were determined by analyzing the data using HELIOS software. IC50 is defined as the lowest concentration of the compound that inhibited 50% growth of the T. b. brucei wild type strain compared to untreated controls.

The subject of assay [2] is Leishmania donovani axenic amastigote. Kind of assay: In vitro assay for growth inhibition of Leishmania donovani axenic amastigote (Cell TiterGlo luminescence). Conditions: read-out: L. donovani amastigotes EC50. How it is done:
Abbreviations as used herein below have the corresponding meaning: • CPRG Chlorophenol Red-P-D-galactopyranoside • ATP adenosine triphosphate • BSA bovine serum albumin • DMSO dimethyl sulfoxide • FBS fetal bovine serum • PBS phosphate buffered saline • RPMI 1640 Rosweli Park Memorial Institute (RPMI) 1640 medium In Vitro Assay for Growth Inhibition of Leishmania donovani Axenic Amastiqote
Leishmania donovani axenic amastigote parasites are grown at 37° C., 5% CO2 in media made of RPMI 1640, 4 mM L-glutamine, 20% heat inactivated FBS, 100 units/ml of penicillin and 100 μg/ml of streptomycin, 23 μM folic acid, 100 μM adenosine, 22 mM D-glucose, 25 mM MES. The pH of media is adjusted to 5.5 at 37° C. using HCl. 20 μL of media is first dispensed into 384 well plates and 100 nL of the compounds of invention in DMSO are added to the plate wells. At the same time control compounds and DMSO are added to plates to serve as the positive and negative controls, respectively. 40 μL of parasite culture (9600 parasites) are then added to the plate wells. The plates are then placed into incubators. After two days incubation, 20 μL of Cell TiterGlo® (Promega) is added to the plate wells. The luminescence signal of each well is measured using the Envision reader (Perkin Elmer).

The test system of assay [3] is Trypanosoma cruzi amastigotes cultured in 3T3 fibroblast cells. Kind of assay: Assay for growth inhibition of kinetoplastid parasite Trypanosoma cruzi (beta-galactosidase Tulahuen strain, CPRG readout). Conditions: read-out: Buckner infectious T. cruzi EC50. From the text:
Assay for Growth Inhibition of Kinetoplastid Parasite Trypanosoma cruzi
Compounds of the invention can be assayed for inhibitor activity against Trypanosoma cruzi amastigotes cultured in 3T3 fibroblast cells. The assay is done using the mammalian stage (amastigotes) of T. cruzi that replicates in the intracellular space of host cells. The host cells are initially infected with the culture-derived trypomastigotes that rapidly invade and then divide as amastigotes. The protocol uses the Tulahuen strain of T. cruzi that has been engineered to express the E. coli beta-galactosidase gene (Lac-Z) (Antimicr. Agents Chemoth. 40:2592, 1996). This allows for a colorimetric readout by using the substrate CPRG and an absorbance plate reader.
3T3 fibroblast cells are re-suspended in RPMI-1640 medium without phenol red medium supplemented with 10% FBS (heat inactivated), 100 μg/ml penicillin, and 100 μg/ml streptomycin. Forty μL of suspension (1,000 cells) is dispensed into 384-well plates and incubated overnight at 37° C. temperature and in atmosphere containing 5% CO2. The following day, 100 nL of compounds of the invention in DMSO are added to plate wells containing 3T3 cells. At the same time control compounds (benznidazole and nifurtimox) and DMSO are added to plates to serve as the positive and negative controls, respectively. After that, 10 μL of media containing 10,000 T. cruzi trypomastigotes are added to each plate well and plates are placed back into incubators. After 6 day incubation, 10 μL of reagent solution (0.6 mM CPRG, 0.6% NP-40 in PBS) is added to plates and incubated at room temperature for 2 hours. Absorbance is then measured on SpectraMax GEMINI fluorimeter to determine relative number of T. cruzi cells present in each plate well.

The mark [4] stands for this setting: Leishmania donovani, L. donovani axenic amastigotes in vitro.
Setting [5] is: Trypanosoma cruzi, Fibroblast, T. cruzi amastigotes in 3T3 fibroblast cells.
Setting [6] is: Leishmania donovani, Table 4: compound of Formula (I) compared with compounds having a different core.
Setting [7] is: Trypanosoma cruzi, Fibroblast, Table 4: compound of Formula (I) compared with compounds having a different core.

Like-named read-outs stand apart in the source and are kept apart here.

In the case of `O=C(Nc1ccc(F)c(-n2cc3cc(N4CC(F)C4)cnc3n2)c1)N1CCC1` [Compound 40, N-{4-fluoro-3-[5-(3-fluoroazetidin-1-yl)-2H-pyrazolo[3,4-b]pyridin-2-yl]phenyl}azetidine-1-carboxamide], the EC50 in assay [1] is less than 0.023 µM. Regarding `O=C(Nc1ccc(F)c(-n2cc3cc(-c4ncccc4F)cnc3n2)c1)N1CC(F)C1` [Compound 187, 3-fluoro-N-(4-fluoro-3-(5-(3-fluoropyridin-2-yl)-2H-pyrazolo[3,4-b]pyridin-2-yl)phenyl)azetidine-1-carboxamide], the 50% effective concentration (EC50) was 0.0013 µM in assay [2] (setting [4]) and less than 0.023 µM in assay [1] (Trypanosoma brucei). Turning to `O=C(Nc1ccc(F)c(-n2cc3cc(N4CCC45COC5)cnc3n2)c1)N1CC(F)C1` [Compound 191, 3-fluoro-N-[4-fluoro-3-(5-{6-oxa-1-azaspiro[3.3]heptan-1-yl}-2H-pyrazolo[3,4-b]pyridin-2-yl)phenyl}azetidine-1-carboxamide], in assay [1], the EC50 was less than 0.023 µM.

Consider `C[C@@H]1CN(c2cnc3nn(-c4cc(NC(=O)N5CC(F)C5)ccc4F)cc3c2)C[C@H](C)O1` [Compound 190, N-(3-{5-[(2R,6S)-2,6-dimethylmorpholin-4-yl]-2H-pyrazolo[3,4-b]pyridin-2-yl]-4-fluorophenyl)-3-fluoroazetidine-1-carboxamide], for which the EC50 in assay [1] is greater than 50 µM. As to `O=C(Nc1ccc(F)c(-n2cc3cc(N4CC5(CC5)C4)cnc3n2)c1)N1CC(F)C1` [Compound 193, N-[3-(5-{5-azaspiro[2.3]hexan-5-yl}-2H-pyrazolo[3,4-b]pyridin-2-yl)-4-fluorophenyl}-3-fluoroazetidine-1-carboxamide], in assay [1], the EC50 was less than 0.023 µM. Regarding `CCC(C)c1cnc2nn(-c3cc(NC(=O)c4ccco4)ccc3F)cc2c1` (centres unmarked) [Compound 61, N-{3-[5-(butan-2-yl)-2H-pyrazolo[3,4-b]pyridin-2-yl]-4-fluorophenyl}furan-2-carboxamide], the values for the EC50 in assay [2] (setting [4]) and in assay [3] (setting [5]) were 0.24 µM and 0.052 µM, respectively. On the same counts, the results for `CC(C)c1cnc2nn(-c3cc(NC(=O)CC(C)C(F)(F)F)ccc3F)cc2c1` (centres unmarked) [Compound 213, 4,4,4-trifluoro-N-{4-fluoro-3-[5-(propan-2-yl)-2H-pyrazolo[3,4-b]pyridin-2-yl]phenyl}-3-methylbutanamide] are 1.56 µM and 0.363 µM. `Cc1nc(C)c(C(=O)Nc2ccc(F)c(-c3cn4nc(C(C)(C)C)cnc4n3)c2)o1` [reference compound]: the EC50 in assay [2] (setting [6]) was 0.367 µM; in assay [3] (setting [7]), 0.057 µM. In the case of `O=C(Nc1ccc(F)c(-n2cc3cc(N4CC(F)(F)C4)cnc3n2)c1)N1CCC1` [Compound 92, N-{3-[5-(3,3-difluoroazetidin-1-yl)-2H-pyrazolo[3,4-b]pyridin-2-yl]-4-fluorophenyl}azetidine-1-carboxamide], in assay [1], the EC50 is less than 0.023 µM. Regarding `Cc1nc(C)c(C(=O)Nc2ccc(F)c(-n3cc4cc(CC(C)(C)C)cnc4n3)c2)o1` [Compound 102, N-{3-[5-(2,2-dimethylpropyl)-2H-pyrazolo[3,4-b]pyridin-2-yl]-4-fluorophenyl}-2,4-dimethyl-1,3-oxazole-5-carboxamide], the EC50 worked out at 0.11 µM in assay [2] (setting [4]) and 0.046 µM in assay [3] (setting [5]).

Consider `Cc1nc(C)c(C(=O)Nc2ccc(F)c(-n3cc4cc(CC(C)C)cnc4n3)c2)o1` [Compound 16, N-{4-fluoro-3-[5-(2-methylpropyl)-2H-pyrazolo[3,4-b]pyridin-2-yl]phenyl}-2,4-dimethyl-1,3-oxazole-5-carboxamide], for which the EC50 was 0.089 µM in assay [2] (setting [4]) and 0.012 µM in assay [3] (setting [5]). Regarding `CC(C)Cc1cnc2nn(-c3cc(NC(=O)c4ccco4)ccc3F)cc2c1` [Compound 54, N-{4-fluoro-3-[5-(2-methylpropyl)-2H-pyrazolo[3,4-b]pyridin-2-yl]phenyl}furan-2-carboxamide], the results for the EC50 in assay [2] (setting [4]) and in assay [3] (setting [5]) were 0.028 µM and 0.0041 µM, respectively. Turning to `O=C(Nc1ccc(F)c(-n2cc3cc(N4C[C@@H](F)[C@H](F)C4)cnc3n2)c1)N1CC(F)C1` [Compound 194, N-(3-{5-[(3R,4R)-3,4-difluoropyrrolidin-1-yl]-2H-pyrazolo[3,4-b]pyridin-2-yl]-4-fluorophenyl)-3-fluoroazetidine-1-carboxamide], in assay [1], the EC50 was less than 0.023 µM. As for `CC(C)c1cnc2nn(-c3cc(NC(=O)CC(C)(C)C)ccc3F)cc2c1` [Compound 217, N-{4-fluoro-3-[5-(propan-2-yl)-2H-pyrazolo[3,4-b]pyridin-2-yl]phenyl}-3,3-dimethylbutanamide], the EC50 in assay [2] (setting [4]) is 14.5 µM; in assay [3] (setting [5]), 4.35 µM. Take `O=C(Nc1ccc(F)c(-n2cc3cc(N4CC(F)C4)cnc3n2)c1)N1CC(F)C1` [Compound 58, 3-fluoro-N-{4-fluoro-3-[5-(3-fluoroazetidin-1-yl)-2H-pyrazolo[3,4-b]pyridin-2-yl]phenyl}azetidine-1-carboxamide]: the EC50 in assay [1] was less than 0.023 µM.

On to `Cc1ccc(C(=O)Nc2ccc(F)c(-n3cc4cc(C(C)C)cnc4n3)c2)o1` [Compound 109, N-{4-fluoro-3-[5-(propan-2-yl)-2H-pyrazolo[3,4-b]pyridin-2-yl]phenyl}-5-methylfuran-2-carboxamide], for which the EC50 is 0.074 µM in assay [2] (setting [4]) and 0.015 µM in assay [3] (setting [5]). As for `Cc1nc(C)c(C(=O)Nc2ccc(F)c(-n3cc4cc(N5CC(C(F)(F)F)C5)cnc4n3)c2)o1` [Compound 279], the results for the EC50 in assay [2] (L. donovani axenic amastigotes in vitro) and in assay [3] (T. cruzi amastigotes in 3T3 fibroblast cells) were 0.01 µM and 0.003 µM, respectively.

Turning to `COc1ccc(C(=O)Nc2ccc(F)c(-n3cc4cc(C(C)C)cnc4n3)c2)o1` [Compound 110, N-{4-fluoro-3-[5-(propan-2-yl)-2H-pyrazolo[3,4-b]pyridin-2-yl]phenyl}-5-methoxyfuran-2-carboxamide], the figures for the EC50 in assay [2] (setting [4]) and in assay [3] (setting [5]) were 0.64 µM and 0.15 µM, respectively. As for `COCC1CN(c2cnc3nn(-c4cc(NC(=O)N5CC(F)C5)ccc4F)cc3c2)C1` [Compound 192], the EC50 in assay [1] was less than 0.023 µM.

For `CC(C)c1cnc2nn(-c3cc(NC(=O)c4ccc(F)o4)ccc3F)cc2c1` [Compound 113, 5-fluoro-N-{4-fluoro-3-[5-(propan-2-yl)-2H-pyrazolo[3,4-b]pyridin-2-yl]phenyl}furan-2-carboxamide], the values for the EC50 in assay [2] (setting [4]) and in assay [3] (setting [5]) were 0.037 µM and 0.00522 µM, respectively.

For `O=C(Nc1ccc(F)c(-n2cc3cc(C4CCCC4)cnc3n2)c1)N1CC(F)C1` [Compound 18, N-(3-{5-cyclopentyl-2H-pyrazolo[3,4-b]pyridin-2-yl}-4-fluorophenyl)-3-fluoroazetidine-1-carboxamide], the EC50 in assay [2] (setting [4]) was 0.29 µM; in assay [3] (setting [5]) it was 0.16 µM. Turning to `Cc1nc(C)c(C(=O)Nc2ccc(F)c(-c3nc4ncc(C(C)C)cn4n3)c2)o1` [reference compound], the EC50 in assay [2] (setting [6]) is 0.21 µM; in assay [3] (setting [7]) it was 0.045 µM. Consider `Cc1nc(C)c(C(=O)Nc2ccc(F)c(-c3nc4ncc(C(C)(C)C)cn4n3)c2)o1` [reference compound], for which the EC50 in assay [2] (setting [6]) came out at 0.08 µM; in assay [3] (setting [7]), 0.022 µM.

A word on the EC50: it is the concentration that produces a half-maximal response.
